Where “and” joins values, the source holds several entries; their conditions need not be identical. Equal entries are not always repeated. Inconclusive results and toxic doses are left out. No stated cut-off is given here; in the data, active means T/C of 150% or more; inactive means T/C below 125%.
Tested on: L1210 leukemia ip in BDF1 mice, survival T/C
Assay: NCI In Vivo Anticancer Drug Screen. Data for tumor model L1210 Leukemia (intraperitoneal) in B6D2F1 (BDF1) mice
Settings: endpoint: mean survival time, higher = longer survival
In short: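 Tumor was transplanted into mice, which were then dosed with test compound or vehicle alone. Survival was recorded for each group, and the treated figure was expressed relative to the control figure.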

[1] = dose: 100.0 mg/kg/injection, schedule: Q04DX002 (ip), vehicle: saline
[2] = dose: 200.0 mg/kg/injection, schedule: Q04DX002 (ip), vehicle: saline
[3] = dose: 100.0 mg/kg/injection, schedule: Q04DX003 (ip), vehicle: Klucel (hydroxypropylcellulose) (HPC)
[4] = dose: 200.0 mg/kg/injection, schedule: Q04DX003 (ip), vehicle: Klucel (hydroxypropylcellulose) (HPC)
[5] = dose: 100.0 mg/kg/injection, schedule: Q01DX009 (ip), vehicle: Klucel (hydroxypropylcellulose) (HPC)
[6] = dose: 200.0 mg/kg/injection, schedule: Q01DX009 (ip), vehicle: Klucel (hydroxypropylcellulose) (HPC)
[7] = dose: 400.0 mg/kg/injection, schedule: Q01DX009 (ip), vehicle: Klucel (hydroxypropylcellulose) (HPC)

Measured: T/C

Nc1ccc(Cn2ccc(=O)[nH]c2=O)cc1
inactive: dose: 100.0 mg/kg/injection, schedule: Q01DX001 (ip), vehicle: saline with Tween-80 102 % of control | dose: 200.0 mg/kg/injection, schedule: Q01DX001 (ip), vehicle: saline with Tween-80 94 % of control | dose: 400.0 mg/kg/injection, schedule: Q01DX001 (ip), vehicle: saline with Tween-80 87 % of control

Clc1ccccc1Nc1c2ccccc2nc2ccccc12
inactive: dose: 100.0 mg/kg/injection, schedule: Q04DX003 (ip), vehicle: saline 100 % of control | dose: 200.0 mg/kg/injection, schedule: Q04DX003 (ip), vehicle: saline 102 % of control | dose: 400.0 mg/kg/injection, schedule: Q04DX003 (ip), vehicle: saline 96 % of control

CCCCOCCOCCOc1ccc(Cl)cc1
inactive: [1] 100 % of control | [2] 113 % of control | dose: 400.0 mg/kg/injection, schedule: Q04DX002 (ip), vehicle: saline 100 % of control

CCOc1ccc(/C=C/[N+](=O)[O-])cc1
inactive: dose: 12.5 mg/kg/injection, schedule: Q01DX009 (ip), vehicle: Klucel (hydroxypropylcellulose) (HPC) 96 % of control | dose: 12.5 mg/kg/injection, schedule: Q04DX003 (ip), vehicle: Klucel (hydroxypropylcellulose) (HPC) 95 % of control | dose: 25.0 mg/kg/injection, schedule: Q01DX009 (ip), vehicle: Klucel (hydroxypropylcellulose) (HPC) 97 % of control | dose: 25.0 mg/kg/injection, schedule: Q04DX003 (ip), vehicle: Klucel (hydroxypropylcellulose) (HPC) 114 % of control | dose: 50.0 mg/kg/injection, schedule: Q01DX009 (ip), vehicle: Klucel (hydroxypropylcellulose) (HPC) 105 % of control | dose: 50.0 mg/kg/injection, schedule: Q04DX003 (ip), vehicle: Klucel (hydroxypropylcellulose) (HPC) 101 % of control | [3] 94 % of control | [4] 95 % of control

CC(C)C(Br)C(=O)NCC(=O)NCC(=O)O (stereo not drawn)
inactive: dose: 100.0 mg/kg/injection, schedule: Q01DX009 (ip), vehicle: saline with Tween-80 93 % of control | dose: 200.0 mg/kg/injection, schedule: Q01DX009 (ip), vehicle: saline with Tween-80 94 % of control | dose: 400.0 mg/kg/injection, schedule: Q01DX009 (ip), vehicle: saline with Tween-80 92 % of control

CC12CCC3CC1OC(=O)C32 (stereo not drawn)
inactive: dose: 12.5 mg/kg/injection, schedule: Q01DX001 (ip), vehicle: saline 98 % of control | dose: 25.0 mg/kg/injection, schedule: Q01DX001 (ip), vehicle: saline 94 % of control | dose: 50.0 mg/kg/injection, schedule: Q01DX001 (ip), vehicle: saline 105 % of control

C=C1C(=O)OCC2(C)CCCCC12 (stereo not drawn)
inactive: dose: 10.0 mg/kg/injection, schedule: Q04DX003 (ip), vehicle: saline 101 % of control | dose: 20.0 mg/kg/injection, schedule: Q04DX003 (ip), vehicle: saline 116 % of control

COC1c2ccccc2C=CN1c1ccc([N+](=O)[O-])cc1[N+](=O)[O-] (stereo not drawn)
inactive: [3] 110 % of control | [4] 104 % of control | dose: 400.0 mg/kg/injection, schedule: Q04DX003 (ip), vehicle: Klucel (hydroxypropylcellulose) (HPC) 108 % of control

COC(=O)c1ccccc1NC(=O)c1ccco1
inactive: [5] 97 % of control | [6] 96 % of control | [7] 91 % of control

CS(=O)(=O)OCC(O)C(O)COS(C)(=O)=O (stereo not drawn)
inactive: dose: 50.0 mg/kg/injection, schedule: Q01DX010 (ip), vehicle: saline 93 % of control and 91 % of control | dose: 100.0 mg/kg/injection, schedule: Q01DX010 (ip), vehicle: saline 96 % of control | dose: 125.0 mg/kg/injection, schedule: Q01DX Z (ip), vehicle: carboxymethylcellulose (CMC) 103 % of control | dose: 200.0 mg/kg/injection, schedule: Q01DX010 (ip), vehicle: saline 102 % of control and 108 % of control | dose: 250.0 mg/kg/injection, schedule: Q01DX Z (ip), vehicle: carboxymethylcellulose (CMC) 112 % of control | dose: 400.0 mg/kg/injection, schedule: Q01DX010 (ip), vehicle: saline 117 % of control | dose: 440.0 mg/kg/injection, schedule: Q01DX001 (ip), vehicle: carboxymethylcellulose (CMC) 101 % of control and 107 % of control | dose: 500.0 mg/kg/injection, schedule: Q01DX Z (ip), vehicle: carboxymethylcellulose (CMC) 123 % of control | dose: 670.0 mg/kg/injection, schedule: Q01DX001 (ip), vehicle: carboxymethylcellulose (CMC) 101 % of control and 107 % of control | dose: 1000.0 mg/kg/injection, schedule: Q01DX001 (ip), vehicle: carboxymethylcellulose (CMC) 103 % of control and 110 % of control

COCP(=O)(O)O
inactive: [1] 96 % of control | [2] 100 % of control

O=C(Nc1cccc(F)c1)N(Cc1ccccc1)Cc1ccccc1
inactive: [5] 92 % of control | [6] 102 % of control | [7] 97 % of control

[N-]=[N+]=NCCC[CH2][Pb]([c]1ccccc1)([c]1ccccc1)[c]1ccccc1
inactive: dose: 50.0 mg/kg/injection, schedule: Q01DX001 (ip), vehicle: carboxymethylcellulose (CMC) 96 % of control | dose: 100.0 mg/kg/injection, schedule: Q01DX001 (ip), vehicle: carboxymethylcellulose (CMC) 102 % of control | dose: 200.0 mg/kg/injection, schedule: Q01DX001 (ip), vehicle: carboxymethylcellulose (CMC) 100 % of control | dose: 400.0 mg/kg/injection, schedule: Q01DX001 (ip), vehicle: carboxymethylcellulose (CMC) 96 % of control

COC(=O)[C@@H]1c2cc3c(c(O)c2[C@@H](OC2OC(C)C(OC)C(C)(OC)C2OC)C[C@]1(C)O)C(=O)c1c(O)cc2c(c1C3=O)O[C@H]1O[C@]2(C)[C@H](O)[C@@H](N(C)C)[C@@H]1O (stereo partly drawn)
inactive: dose: 0.2 mg/kg/injection, schedule: Q01DX Z (ip), vehicle: saline 98 % of control | dose: 0.25 mg/kg/injection, schedule: Q01DX009 (ip), vehicle: saline 102 % of control | dose: 0.3 mg/kg/injection, schedule: Q01DX Z (ip), vehicle: saline 116 % of control | dose: 0.44 mg/kg/injection, schedule: Q01DX Z (ip), vehicle: saline 107 % of control | dose: 0.5 mg/kg/injection, schedule: Q01DX009 (ip), vehicle: saline 107 % of control | dose: 0.67 mg/kg/injection, schedule: Q01DX Z (ip), vehicle: saline 112 % of control | dose: 0.8 mg/kg/injection, schedule: Q## X008 (ip), vehicle: saline 113 % of control | dose: 0.8 mg/kg/injection, schedule: Q## X032 (ip), vehicle: saline 113 % of control | dose: 1.0 mg/kg/injection, schedule: Q01DX001 (ip), vehicle: saline 115 % of control | dose: 1.0 mg/kg/injection, schedule: Q01DX009 (ip), vehicle: saline 106 % of control | dose: 1.0 mg/kg/injection, schedule: Q01DX Z (ip), vehicle: saline 107 % of control | dose: 1.5 mg/kg/injection, schedule: Q01DX Z (ip), vehicle: carboxymethylcellulose (CMC) 116 % of control | dose: 2.0 mg/kg/injection, schedule: Q01DX001 (ip), vehicle: saline 120 % of control | dose: 2.0 mg/kg/injection, schedule: Q01DX009 (ip), vehicle: saline 86 % of control | dose: 2.0 mg/kg/injection, schedule: Q01DX Z (ip), vehicle: carboxymethylcellulose (CMC) 102 % of control | dose: 4.0 mg/kg/injection, schedule: Q01DX001 (ip), vehicle: saline 114 % of control | dose: 5.0 mg/kg/injection, schedule: Q01DX001 (ip), vehicle: saline 118 % of control | dose: 8.0 mg/kg/injection, schedule: Q01DX001 (ip), vehicle: saline 108 % of control | dose: 8.0 mg/kg/injection, schedule: Q## X008 (ip), vehicle: saline 109 % of control | dose: 8.0 mg/kg/injection, schedule: Q## X032 (ip), vehicle: saline 103 % of control | dose: 10.0 mg/kg/injection, schedule: Q01DX001 (ip), vehicle: saline 109 % of control

O=[N+]([O-])c1ccc(OCCCCOc2ccccc2)cc1
inactive: dose: 100.0 mg/kg/injection, schedule: Q01DX009 (ip), vehicle: saline 110 % of control | dose: 200.0 mg/kg/injection, schedule: Q01DX009 (ip), vehicle: saline 96 % of control | dose: 400.0 mg/kg/injection, schedule: Q01DX009 (ip), vehicle: saline 92 % of control

O=[N+]([O-])c1ccc(O)c(Br)c1
inactive: dose: 6.25 mg/kg/injection, schedule: Q01DX009 (ip), vehicle: saline with Tween-80 95 % of control | dose: 12.5 mg/kg/injection, schedule: Q01DX009 (ip), vehicle: saline with Tween-80 101 % of control | dose: 25.0 mg/kg/injection, schedule: Q01DX009 (ip), vehicle: carboxymethylcellulose (CMC) 90 % of control | dose: 25.0 mg/kg/injection, schedule: Q01DX009 (ip), vehicle: saline with Tween-80 93 % of control
